ChEMBL document CHEMBL3763116, “Synthesis and evaluation of colletoic acid core derivatives” (Eur J Med Chem, 2016)

Columns and labels:
[1] = biological target: T1, 11-beta-hydroxysteroid dehydrogenase type 2 (Homo sapiens, UniProt P80365); assay: Inhibition of full length human 11beta-HSD2 expressed in HEK293 cells using […] as substrate incubated for 2 hrs by HTRF assay in presence of NAD+; format: cell-based
T1 sequence (P80365 whole entry): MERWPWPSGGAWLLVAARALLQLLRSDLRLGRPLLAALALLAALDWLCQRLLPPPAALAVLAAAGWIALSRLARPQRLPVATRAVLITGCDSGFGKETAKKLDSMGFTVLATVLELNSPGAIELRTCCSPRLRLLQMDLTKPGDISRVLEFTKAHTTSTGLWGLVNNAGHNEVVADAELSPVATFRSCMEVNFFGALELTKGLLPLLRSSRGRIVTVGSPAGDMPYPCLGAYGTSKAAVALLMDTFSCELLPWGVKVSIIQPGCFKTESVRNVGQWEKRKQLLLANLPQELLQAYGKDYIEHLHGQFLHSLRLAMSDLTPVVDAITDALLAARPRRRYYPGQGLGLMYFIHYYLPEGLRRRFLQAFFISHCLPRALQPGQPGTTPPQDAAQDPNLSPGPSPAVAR

[2] = system: BJ; assay: Cytotoxicity against human BJ cells after 72 hrs by Cell TitreGlo assay; format: cell-based
[3] = biological target: 11-beta-hydroxysteroid dehydrogenase 1 (Homo sapiens, UniProt P28845); assay: Inhibition of 11beta-HSD1 (unknown origin) using cortisol as substrate assessed as NADPH formation by fluorescent plate reader analysis
Chain of 11-beta-hydroxysteroid dehydrogenase 1 (P28845 whole entry): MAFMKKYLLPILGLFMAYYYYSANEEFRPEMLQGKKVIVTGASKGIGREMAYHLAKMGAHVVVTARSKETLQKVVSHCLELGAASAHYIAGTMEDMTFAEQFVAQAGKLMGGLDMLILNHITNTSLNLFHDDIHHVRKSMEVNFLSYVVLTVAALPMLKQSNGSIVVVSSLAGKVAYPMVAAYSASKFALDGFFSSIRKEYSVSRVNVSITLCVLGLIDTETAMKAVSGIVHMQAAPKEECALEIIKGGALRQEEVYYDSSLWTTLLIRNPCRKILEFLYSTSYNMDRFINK

Structure (SMILES) | IC50 [1] | EC50 [2] | IC50 [3]
CCn1c2ccccc2c2nnc(SC[C@H]3CC=C(C(C)C)[C@]34C=CC(=O)CC4)nc21 | > 1000 µM | > 90 µM | 33 µM
CC(C)[C@@H]1CC[C@H](CO)[C@]12CC[C@@](C)(O)[C@@H](O)C2 | – | > 90 µM | > 1000 µM
C=C1C(=O)C[C@]2(C[C@@H]1OC(C)=O)[C@@H](C(=O)OCC)CC[C@H]2C(C)C | – | > 90 µM | > 1000 µM
COc1ccc(S(=O)(=O)NCc2cn(C[C@H]3CC=C(C(C)C)[C@]34C=CC(=O)CC4)nn2)cc1 | > 1000 µM | > 90 µM | > 1000 µM
CC(C)[C@@H]1CC[C@H](CO)[C@]12CC[C@](C)(O)[C@H]1O[C@H]12 | – | > 90 µM | > 1000 µM
CC1=CC[C@@]2(c3ccccc3C[C@@H]2C(=O)O)[C@H](O)[C@@H]1O | – | > 90 µM | > 1000 µM
CC(C)C1=CC[C@H](CO)[C@@]12C=CC(=O)CC2 | – | > 90 µM | > 1000 µM
CC(C)C1=CC(=O)[C@H](CO[Si](C)(C)C(C)(C)C)[C@@]12C=C[C@](C)(O)CC2 | – | > 90 µM | > 1000 µM
CCCCCCSc1nnc(SC[C@H]2CC=C(C(C)C)[C@]23C=CC(=O)CC3)s1 | > 1000 µM | > 90 µM | > 1000 µM
CC1=CC[C@@]2(CC1)C(C(C)C)=CC[C@@H]2CO | – | > 90 µM | > 1000 µM
CC1=CC(=O)[C@@]2(CC1)C(C(C)C)=CC[C@@H]2CO[Si](C)(C)C(C)(C)C | – | > 90 µM | > 1000 µM
CC(C)[C@@H]1CC[C@@H]2CO[C@@H]3C[C@](C)(O)CC[C@]231 | – | > 90 µM | > 1000 µM
CC(C)C1=CC[C@H](C(=O)NC(C)C23CC4CC(CC(C4)C2)C3)[C@@]12C=CC(=O)CC2 (some centres undefined) | > 1000 µM | > 90 µM | 85 µM
CC(C)C1=CC[C@H](C(N)=O)[C@@]12C=CC(=O)CC2 | – | > 90 µM | > 1000 µM
CCOC(=O)[C@H]1CC[C@@H](C(C)C)[C@]12CCC(=O)[C@@H](OC(C)=O)C2 | – | > 90 µM | > 1000 µM
CC(C)C1=CC[C@H](C(=O)NCc2cc(F)cc(F)c2)[C@@]12C=CC(=O)CC2 | > 1000 µM | > 90 µM | > 1000 µM

Structure (SMILES) | IC50 [1] | EC50 [2] | IC50 [3]
O=C1CC[C@@]2(c3ccccc3C[C@@H]2CO)[C@@H]2O[C@H]12 | – | > 90 µM | > 1000 µM
CC(C)C1=CC[C@H](C(=O)NCC2CCC3CC2C3(C)C)[C@@]12C=CC(=O)CC2 (some centres undefined) | > 1000 µM | > 90 µM | 94 µM
CC(C)C1=CC[C@H](CO)[C@]12CCC(=O)[C@H]1O[C@H]12 | – | > 90 µM | > 1000 µM
O=C1C=C[C@@]2(CC1)c1ccccc1C[C@@H]2CO | – | > 90 µM | > 1000 µM
CCOC(=O)[C@H]1CC=C(C(C)C)[C@]12C=CC(=O)[C@@H](OC(C)=O)C2 | – | > 90 µM | > 1000 µM
CCCCCCSc1nnc(S(=O)(=O)C[C@H]2CC=C(C(C)C)[C@]23C=CC(=O)CC3)s1 | > 1000 µM | > 90 µM | 121 µM
CC(C)C1=CC[C@H](CO)[C@]12CC[C@@](C)(O)C[C@H]2O | – | > 90 µM | > 1000 µM
CC(C)C1=CC[C@H](C(=O)NCCc2cccs2)[C@@]12C=CC(=O)CC2 | > 1000 µM | > 90 µM | > 1000 µM
CC(C)C1=CC[C@H](CSc2nc3ccccc3o2)[C@@]12C=CC(=O)CC2 | > 1000 µM | > 90 µM | > 1000 µM
CC(C)C1=CC[C@H](CO)[C@@]12C=C[C@](C)(O)CC2 | – | > 90 µM | > 1000 µM
CC(C)C1=CC[C@H](CN2C(=O)c3ccccc3C2=O)[C@@]12C=CC(=O)CC2 | > 1000 µM | > 90 µM | > 1000 µM
C[C@H]1CC[C@@]2(c3ccccc3C[C@@H]2C(=O)O)[C@H](O)[C@@H]1O | – | > 90 µM | > 1000 µM
C=C1C=C[C@]2(CC1)[C@@H](C(=O)OCC)CC[C@H]2C(C)C | – | > 90 µM | > 1000 µM
CC(C)C1=CC[C@H](CO[Si](C)(C)C(C)(C)C)[C@]12CC[C@@]1(O[Si](C)(C)C(C)(C)C)O[C@H]1C2 | – | > 90 µM | > 1000 µM
CC(C)C1=CC[C@H](CO)[C@]12CC[C@](C)(O)[C@@H](O)C2 | – | > 90 µM | > 1000 µM
CCOC(=O)[C@H]1CC[C@@H](C(C)C)[C@]12C=CC(O)[C@@H](OC(C)=O)C2 (single isomer, unassigned) | – | > 90 µM | > 1000 µM
